{"source": "patent US20210205244A1", "about": "“PREVENTION AND/OR TREATMENT OF CHRONIC FATIGUE SYNDROME” (BOHNE ASKØY AS, priority 2016, published 2021)", "key": {"[1]": {"system": "healthy and ME affected persons", "settings": "general knowledge; cited from earlier work"}, "Person 5": {"system": "Person 5", "test": "Medicinal drug use in combination with the treatment", "type": "in vivo, human", "settings": "Person 5, excluded after 20 weeks", "procedure": "Three persons were not receiving the drinkable for self-treatment: 2, 5 and 6. […] Person 6 was excluded of toxicological consideration after 20 weeks because massive use of painkiller […] forte, 600 mg: 20 tablets per day, and was practically an abuser of medicinal drugs. Person 2 was excluded because use of sleep medicine-Alimemazin tartrate. All three drugs listed with long list of the negative by-effects. Those effects are very similar to the symptoms on the list of Canadian Criteria. Further treatment with mixture of drinkable oxalates was therefore is not considerate."}, "P12": {"system": "P12", "settings": "P12, altogether 8 doses; cited from earlier work"}}, "note": "Structures can show the parent of a compound that is named as a salt."}
{"compound": "O=C(O)CCCCC1CCSS1", "note": "(stereo not drawn) [ALA, alpha-lipoic acid]", "values": [{"measurement": "Time of excretion via urine post intake", "setting": "[1]", "value": "30 to 60", "unit": "min"}]}
{"compound": "CN(C)CCC[C@@]1(c2ccc(F)cc2)OCc2cc(C#N)ccc21", "note": "[Escitalopram Oxalate]", "values": [{"measurement": "Adverse effect in combination with mixture of drinkable oxalates", "setting": "Person 5", "value": "massive diarrhea"}]}
{"compound": "Rituximab: Rituximab therapy given in clinical studies at Haukeland University Hospital", "values": [{"measurement": "Response to therapy", "setting": "P12", "value": "non-responder"}]}
